The target in this experiment is T1, human TLR8 (Homo sapiens, UniProt Q9NR97).
T1 sequence (Q9NR97 27-1041): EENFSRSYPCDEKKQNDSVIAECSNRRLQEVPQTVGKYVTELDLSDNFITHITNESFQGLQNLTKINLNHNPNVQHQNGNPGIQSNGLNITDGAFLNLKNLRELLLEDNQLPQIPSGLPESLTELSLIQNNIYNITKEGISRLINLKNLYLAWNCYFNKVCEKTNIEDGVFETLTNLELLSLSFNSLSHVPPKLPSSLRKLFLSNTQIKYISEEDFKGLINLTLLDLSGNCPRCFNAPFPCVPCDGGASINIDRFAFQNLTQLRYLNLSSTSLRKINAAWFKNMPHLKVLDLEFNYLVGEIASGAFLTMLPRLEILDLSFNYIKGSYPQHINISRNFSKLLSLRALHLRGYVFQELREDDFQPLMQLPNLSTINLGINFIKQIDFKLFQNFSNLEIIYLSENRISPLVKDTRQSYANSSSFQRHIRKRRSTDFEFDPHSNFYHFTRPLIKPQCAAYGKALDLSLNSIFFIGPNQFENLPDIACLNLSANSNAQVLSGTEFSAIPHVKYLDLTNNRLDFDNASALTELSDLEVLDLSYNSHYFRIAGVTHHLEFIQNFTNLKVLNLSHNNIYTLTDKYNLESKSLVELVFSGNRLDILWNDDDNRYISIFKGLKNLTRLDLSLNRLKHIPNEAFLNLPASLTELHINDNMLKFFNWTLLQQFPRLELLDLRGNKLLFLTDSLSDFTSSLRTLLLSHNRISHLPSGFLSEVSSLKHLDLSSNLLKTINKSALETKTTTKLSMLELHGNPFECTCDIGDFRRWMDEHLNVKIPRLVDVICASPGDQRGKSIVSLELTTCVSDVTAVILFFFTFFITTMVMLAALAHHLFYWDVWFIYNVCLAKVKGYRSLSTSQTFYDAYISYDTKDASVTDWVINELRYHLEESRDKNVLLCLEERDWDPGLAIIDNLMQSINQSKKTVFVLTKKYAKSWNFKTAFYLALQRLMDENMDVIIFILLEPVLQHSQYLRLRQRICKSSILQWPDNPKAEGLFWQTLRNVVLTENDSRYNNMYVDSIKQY
The experiment is described as follows: HEK293-Blue-hTLR-8 cells assay. Format: cell-based. As to conditions: HEK293-Blue-hTLR8 cells, SEAP reporter, R848 stimulation, 20 hrs. From the text:
HEK293-Blue-hTLR-8 Cells Assay:
A stable HEK293-Blue-hTLR-8 cell line was purchased from InvivoGen (Cat. #: hkb-htlr8, San Diego, Calif., USA). These cells were originally designed for studying the stimulation of human TLR8 by monitoring the activation of NF-κB. A SEAP (secreted embryonic alkaline phosphatase) reporter gene was placed under the control of the IFN-β minimal promoter fused to five NF-κB and AP-1-binding sites. The SEAP was induced by activating NF-κB and AP-1 via stimulating HEK-Blue hTLR8 cells with TLR8 ligands. Therefore the reporter expression was declined by TLR8 antagonist under the stimulation of a ligand, such as R848, for incubation of 20 hrs. The cell culture supernatant SEAP reporter activity was determined using QUANTI-Blue™ kit (Cat. #: rep-qb1, Invivogen, San Diego, Ca, USA) at a wavelength of 640 nm, a detection medium that turns purple or blue in the presence of alkaline phosphatase.
HEK293-Blue-hTLR8 cells were incubated at a density of 250,000-450,000 cells/mL in a volume of 170 μL in a 96-well plate in Dulbecco's Modified Eagle's medium (DMEM) containing 4.5 g/L glucose, 50 U/mL penicillin, […], […], 2 mM L-glutamine, 10% (v/v) heat-inactivated fetal bovine serum with addition of 20 μL test compound in a serial dilution in the presence of final DMSO at 1% and 10 sL of 60 uM R848 in above DMEM, perform incubation under 37° C. in a CO2 incubator for 20 hrs. Then 20 μL of the supernatant from each well was incubated with 180 sL Quanti-blue substrate solution at 37° C. for 2 hrs and the absorbance was read at 620˜655 nm using a spectrophotometer. The signalling pathway that TLR8 activation leads to downstream NF-κB activation has been widely accepted, and therefore similar reporter assay was modified for evaluating TLR8 antagonist.

The structures appear in SMILES notation.

On to `CN1CCC(NC(=O)C2CN(c3ccc(C#N)c4ncccc34)CC2C(F)(F)F)CC1` (stereo not drawn) [Example 18, 1-(8-Cyano-5-quinolyl)-N-(1-methyl-4-piperidyl)-4-(trifluoromethyl)pyrrolidine-3-carboxamide], for which the midpoint of inhibition, the IC50, lay at 75 nM.

In turn, `CN1CCC(NC(=O)[C@@H]2CN(c3ccc(C#N)c4ncccc34)C[C@H]2C(F)F)CC1` (relative stereo) [Example 40, Trans-1-(8-cyano-5-quinolyl)-4-(difluoromethyl)-N-(1-methyl-4-piperidyl)pyrrolidine-3-carboxamide] registered an IC50 of 134 nM.

In turn, `N[C@H]1CC[C@H](NC(=O)C2CN(c3ccc(C(F)(F)F)c4nccnc34)CC23CC3)CC1` (stereo partly drawn) [Example 24, N-(4-aminocyclohexyl)-5-[8-(trifluoromethyl)quinoxalin-5-yl]-5-azaspiro[2.4]heptane-7-carboxamide] showed an IC50 of 175 nM.

`CN1CCC(NC(=O)C2CN(c3ccc(C(F)(F)F)c4nccnc34)CC23CC3)CC1` (stereo not drawn) [Example 11, N-(1-methyl-4-piperidyl)-5-[8-(trifluoromethyl)quinoxalin-5-yl]-5-azaspiro[2.4]heptane-7-carboxamide]: 30 nM corresponded to half-maximal inhibition (IC50).

As to `CN1CCC(NC(=O)[C@H]2CN(c3ccc(C(F)(F)F)c4nccnc34)C[C@@H]2C(F)(F)F)CC1` [Example 2, (3R,4R)—N-(1-methyl-4-piperidyl)-4-(trifluoromethyl)-1-[8-(trifluoromethyl)quinoxalin-5-yl]pyrrolidine-3-carboxamide], the IC50 came to 18 nM. Against the preceding molecule, the IC50 is about 1.7-fold lower.

`CN1CCC(NC(=O)[C@H]2CN(c3ccc(C#N)c4nccnc34)C[C@@H]2C(F)(F)F)CC1` [Example 1, (3R,4R)-1-(8-cyanoquinoxalin-5-yl)-N-(1-methyl-4-piperidyl)-4-(trifluoromethyl) pyrrolidine-3-carboxamide] returned an IC50 of 13 nM.

`N#Cc1ccc(N2CC(C(=O)NCC3CNCCO3)C3(CC3)C2)c2nccnc12` (stereo not drawn) [Example 13, 5-(8-Cyanoquinoxalin-5-yl)-N-(morpholin-2-ylmethyl)-5-azaspiro[2.4]heptane-7-carboxamide] returned a 50% inhibitory concentration (IC50) of 48 nM.

Consider `C[C@@H]1CN(c2ccc(C#N)c3ncccc23)C[C@H]1C(=O)NC1CCN(C)CC1` (relative stereo) [Example 28], for which the IC50 was found to be 52 nM.

As for `O=C(NC1C2CCCC1CNC2)C1CN(c2ccc(C(F)(F)F)c3nccnc23)CC12CC2` (stereo not drawn) [Example 8, N-(3-azabicyclo[3.3.1]nonan-9-yl)-5-[8-(trifluoromethyl)quinoxalin-5-yl]-5-azaspiro[2.4]heptane-7-carboxamide], the IC50 came out at 216 nM.

Molecule `N#Cc1ccc(N2CC(C(=O)NC3CCCNCC3)C(C(F)(F)F)C2)c2cccnc12` (single isomer, unassigned) [Example 30A, N-(azepan-4-yl)-1-(8-cyano-5-quinolyl)-4-(trifluoromethyl)pyrrolidine-3-carboxamide] gave a concentration for half-maximal inhibition (IC50) of 67 nM.

`CN1CCC(NC(=O)C2CN(c3ccc(C#N)c4nccnc34)CC23CC3)CC1` (single isomer, unassigned) [Example 7B, 5-(8-Cyanoquinoxalin-5-yl)-N-(1-methyl-4-piperidyl)-5-azaspiro[2.4]heptane-7-carboxamide] gave a 50% inhibitory concentration (IC50) of 26 nM.

As to `NC1CC(CNC(=O)C2CN(c3ccc(C(F)(F)F)c4nccnc34)CC23CC3)C1` (stereo not drawn) [Example 31, N-[(3-aminocyclobutyl)methyl]-5-[8-(trifluoromethyl)quinoxalin-5-yl]-5-azaspiro[2.4]heptane-7-carboxamide], the midpoint of inhibition, the IC50, lay at 167 nM. This IC50 lies about 6.4-fold higher than the previous one.

For `C[C@H]1CN(c2ccc(C#N)n3nccc23)C[C@@H]1C(=O)NC1CCN(C)CC1` [Example 44, (3R,4R)-1-(7-cyanopyrazolo[1,5-a]pyridin-4-yl)-4-methyl-N-(1-methyl-4 piperidyl)pyrrolidine-3-carboxamide], half-maximal inhibition (IC50) was put at 404 nM.

Molecule `C[C@@H]1CN(c2ccc(C#N)c3ncccc23)C[C@H]1C(=O)NC1CCCNCC1` (single isomer, unassigned) [Example 52B, Trans-N-(azepan-4-yl)-1-(8-cyano-5-quinolyl)-4-methyl-pyrrolidine-3-carboxamide] came in with a concentration for half-maximal inhibition (IC50) of 274 nM.

Take `N#Cc1ccc(N2C[C@@H](C(F)(F)F)[C@H](C(=O)N[C@H]3CNC[C@H]3F)C2)c2cccnc12` [Example 47, Trans-1-(8-cyano-5-quinolyl)-N-[(3S,4R)-4-fluoropyrrolidin-3-yl]-4-(trifluoromethyl)pyrrolidine-3-carboxamide]: the IC50 was 404 nM.

`O=C(NC1CC2CNCC2C1)C1CN(c2ccc(C(F)(F)F)c3nccnc23)CC12CC2` (stereo not drawn) [Example 21, N-(1,2,3,3a,4,5,6,6a-octahydrocyclopenta[c]pyrrol-5-yl)-5-[8-(trifluoromethyl)quinoxalin-5-yl]-5-azaspiro[2.4]heptane-7-carboxamide] gave a half-maximal inhibitory concentration (IC50) of 77 nM.

In turn, `N[C@@H]1CCC[C@H](NC(=O)C2CN(c3ccc(C(F)(F)F)c4nccnc34)CC23CC3)C1` (relative stereo) [Example 43, Cis-N-(3-aminocyclohexyl)-5-[8-(trifluoromethyl)quinoxalin-5-yl]-5-azaspiro[2.4]heptane-7-carboxamide] gave an IC50 of 124 nM. This IC50 is about 1.6-fold higher than that of the molecule before.

`C[C@H]1CN(c2ccc([N+](=O)[O-])c3ncccc23)C[C@@H]1C(=O)NC1CCN(C)CC1` [Example 27, (3R,4R)-4-Methyl-N-(1-methyl-4-piperidyl)-1-(8-nitro-5-quinolyl)pyrrolidine-3-carboxamide] showed an IC50 of 52 nM.

For the molecule `C[C@H]1CN(c2ccc(C#N)c3nccnc23)C[C@@H]1C(=O)NC1CCN(C)CC1` [Example 3, (3R,4R)-1-(8-cyanoquinoxalin-5-yl)-4-methyl-N-(1-methyl-4-piperidyl)pyrrolidine-3-carboxamide], the IC50 came to 5 nM.

`C[C@H]1CN(c2ccc(C#N)c3ncccc23)C[C@@H]1C(=O)NC1CCN(C)CC1` [Example 16, (3R,4R)-1-(8-cyano-5-quinolyl)-4-methyl-N-(1-methyl-4-piperidyl)pyrrolidine-3-carboxamide] registered an IC50 of 72 nM.

In turn, `N[C@H]1CC[C@@H](NC(=O)C2CN(c3ccc(C(F)(F)F)c4nccnc34)CC23CC3)CC1` (stereo partly drawn) [Example 39, N-(4-Aminocyclohexyl)-5-[8-(trifluoromethyl)quinoxalin-5-yl]-5-azaspiro[2.4]heptane-7-carboxamide] displayed an IC50 of 447 nM.

Turning to `CN1CCC(NC(=O)[C@H]2CN(c3ccc(C#N)c4ncccc34)C[C@@H]2C(F)(F)F)CC1` [Example 4, (3R,4R)-1-(8-cyano-5-quinolyl)-N-(1-methyl-4-piperidyl)-4-(trifluoromethyl)pyrrolidine-3-carboxamide], half-maximal inhibition (IC50) was put at 25 nM.

As to `C[C@@H]1CN(c2ccc(C#N)c3ncccc23)C[C@H]1C(=O)N1CCC2(CCNCC2)CC1` (relative stereo) [Example 32, Trans-5-[3-(3,9-diazaspiro[5.5]undecane-3-carbonyl)-4-methyl-pyrrolidin-1-yl]quinoline-8-carbonitrile], the IC50 amounted to 213 nM.

Take `CN1CC(NC(=O)C2CN(c3ccc(C(F)(F)F)c4nccnc34)CC23CC3)C2(CC2)C1` (stereo not drawn) [Example 20, N-(5-methyl-5-azaspiro[2.4]heptan-7-yl)-5-[8-(trifluoromethyl)quinoxalin-5-yl]-5-azaspiro[2.4]heptane-7-carboxamide]: the 50% inhibitory concentration (IC50) was 369 nM.

In general, IC50 refers to the point on the concentration scale where inhibition reaches its midpoint. Lower therefore signals greater potency in that assay.

Source of the values: patent US20210323977A1, “PYRROLIDINYL AMIDE COMPOUNDS FOR THE TREATMENT OF AUTOIMMUNE DISEASE” (Hoffmann-La Roche Inc., priority 2018, published 2021).
